Assay results reported in US6015809A (priority 1999, dated 2000).
Values after ≈ are worked out from the molar mass of the structure shown.

Key:
Type in all cases: cell-based
[1] = system: A431 (vulva epidermoid origin) tumor cells; experiment: Antineoplastic activity in vitro, tumor cell growth (sulforhrodamine B); details: A431, 48 hours
Description: (§1) Antineoplastic activity for the compounds of this invention was established by evaluating the antineoplastic activity of a representative compound of this invention (Compound I) against six tumor cell lines in vitro. Briefly, tumor cells from six cell lines were placed in wells of a 96 well microtiter plate. The following tumor cell lines were used: A2780S (ovarian), A2780DDP (ovarian--resistant to cis-platin), A431 (vulva epidermoid origin), SW620 (colon), SKBR3 (breast), and MDA-MB-435 (breast). The tumors cells were grown in the presence of serial dilutions of the compound to be evaluated for 48 hours, and cell growth determined using a colorimetric procedure (sulforhrodamine B). The inhibition of growth was calculated compared to the number of cells at the time of test compound addition. Results are expressed as an IC50 (μg/ml). […] In particular, the compounds of this invention are useful against solid tumors, including sarcomas and carcinomas; and more particularly against astrocytomas, prostate cancer, breast cancer, colon cancer, small cell lung cancer, and ovarian cancer; and adult T-cell leukemia/lymphoma.

[2] = system: SKBR3 (breast) tumor cells; experiment: as above; details: SKBR3, 48 hours
Description: as §1

[3] = system: A2780S (ovarian) tumor cells; experiment: as above; details: 48 hours
Description: as §1

[4] = system: SW620 (colon) tumor cells; experiment: as above; details: SW620, 48 hours
Description: as §1

[5] = system: A2780DDP (ovarian--resistant to cis-platin) tumor cells; experiment: as above; details: 48 hours
Description: as §1

[6] = system: MDA-MB-435 (breast) tumor cells; experiment: as above; details: MDA-MB-435, 48 hours
Description: as §1

Aspergillus fumigatus = experiment: Antifungal activity, MIC microdilution; details: strain ATCC 26933; RPMI 1640, 35° C., 24-48 hours
Experimental: (§2) Antifungal activity for the compounds of this invention was established by evaluating a representative compound of this invention (Compound I) against several strains of fungi. Briefly the following procedure was used to evaluate such activity. A 96 U-bottom microtiter plate was filled (50 μl/well) with RPMI 1640. The compounds to be evaluated were placed in appropriate wells, and serial diluted in successive wells to provide 11 dilutions. The concentrations ranged from 64 through 0.06 μg/ml. An adjusted inoculum of fungi (50 μl) was added to each well and the plates were incubated at 35° C. for 24-48 hours.

Candida krussii = experiment: Antifungal activity, MIC microdilution; details: strain 94-2; RPMI 1640, 35° C., 24-48 hours
Experimental: as §2

Candida tropicalis = experiment: Antifungal activity, MIC microdilution; details: RPMI 1640, 35° C., 24-48 hours
Experimental: as §2

[7] = system: Filobasidiella neoformans; experiment: Antifungal activity, MIC microdilution; details: strain ATCC 7472; RPMI 1640, 35° C., 24-48 hours
Experimental: as §2

Cryptococcus neoformans = experiment: Antifungal activity, MIC microdilution; details: strain ATCC 90112; RPMI 1640, 35° C., 24-48 hours
Experimental: as §2

Candida glabrata = experiment: Antifungal activity, MIC microdilution; details: strain ATCC 90030; RPMI 1640, 35° C., 24-48 hours
Experimental: as §2

Candida parapsilosis = experiment: Antifungal activity, MIC microdilution; details: RPMI 1640, 35° C., 24-48 hours
Experimental: as §2

Saccharomyces cerevisiae = experiment: Antifungal activity, MIC microdilution; details: strain ATCC 2601; RPMI 1640, 35° C., 24-48 hours
Experimental: (§3) Briefly the following procedure was used to evaluate such activity. A 96 U-bottom microtiter plate was filled (50 μl/well) with RPMI 1640. The compounds to be evaluated were placed in appropriate wells, and serial diluted in successive wells to provide 11 dilutions. The concentrations ranged from 64 through 0.06 μg/ml. An adjusted inoculum of fungi (50 μl) was added to each well and the plates were incubated at 35° C. for 24-48 hours.

Candida albicans = experiment: Antifungal activity, MIC microdilution; details: RPMI 1640, 35° C., 24-48 hours
Experimental: as §3

Candida zeylanoided = experiment: Antifungal activity, MIC microdilution; details: strain 94-15; RPMI 1640, 35° C., 24-48 hours
Experimental: as §3

Aspergillus flavus = experiment: Antifungal activity, MIC microdilution; details: strain ATCC 12963; RPMI 1640, 35° C., 24-48 hours
Experimental: as §3

Aspergillus niger = experiment: Antifungal activity, MIC microdilution; details: strain S-430; RPMI 1640, 35° C., 24-48 hours
Experimental: as §3

Candida lusitaniae = experiment: Antifungal activity, MIC microdilution; details: strain 94-3; RPMI 1640, 35° C., 24-48 hours
Experimental: as §3

Candida rugosa = experiment: Antifungal activity, MIC microdilution; details: strain 94-10; RPMI 1640, 35° C., 24-48 hours
Experimental: as §3

Candida pseudotropicalis = experiment: Antifungal activity, MIC microdilution; details: strain ATCC 28838; RPMI 1640, 35° C., 24-48 hours
Experimental: as §3

## CO[C@H]1C[C@@H]2CC[C@@H](C)[C@@](O)(O2)[C@]2(O)C(=O)N3[C@@H](CCC[C@@H]32)C(=O)O[C@H]([C@H](C)C[C@@H]2CC[C@@H](O)[C@H](OC)C2)CC(=O)[C@H](C)/C=C(\C)[C@@H](O)[C@@H](OC)C(=O)[C@H](C)C[C@H](C)/C=C/C=C/C=C/1C [Compound I, (1S,2R,3R,6S,8S,9E,11E,13E,15S,17R,19R,20R,21E,23R,26S,29S,33R)-1,2,30-Trihydroxy-26-[(1R)-2-[(1S,3R,4R)4-hydroxy-3-methoxycyclohexyl]-1-methylethyl]-8,19-dimethoxy-3,9,15,17,21,23-hexamethyl-27,36-dioxa-35-azatetracyclo[27.4.2.1.[2,6].0[33,35]]hexatriaconta-9,11,13,21-tetraene-18,24,28,34-tetrone]
[1]
  IC50 (inhibition of growth): 20.46 µg/mL
[2]
  IC50 (inhibition of growth): 7.029 µg/mL
[3]
  IC50 (inhibition of growth): 8.756 µg/mL
[4]
  IC50 (inhibition of growth): 24.84 µg/mL
[5]
  IC50 (inhibition of growth): 6.51 µg/mL
[6]
  IC50 (inhibition of growth): 27.28 µg/mL
Aspergillus fumigatus
  MIC: ≥ 64 µg/mL
Candida krussii
  MIC: ≥ 64 µg/mL
Candida tropicalis; strain 94-13
  MIC: 16 µg/mL (≈ 17.5 µM)
Candida tropicalis; strain 94-14
  MIC: 8 µg/mL (≈ 8.75 µM)
[7]
  MIC: ≥ 64 µg/mL
Cryptococcus neoformans
  MIC: 8 µg/mL (≈ 8.75 µM)
Candida glabrata
  MIC: 8 µg/mL (≈ 8.75 µM)
Candida parapsilosis; strain 94-8
  MIC: 8 µg/mL (≈ 8.75 µM)
Candida parapsilosis; strain 94-9
  MIC: 8 µg/mL (≈ 8.75 µM)
Candida parapsilosis; strain ATCC 90018
  MIC: 8 µg/mL (≈ 8.75 µM)
Saccharomyces cerevisiae
  MIC: 8 µg/mL (≈ 8.75 µM)
Candida albicans; strain 94-1
  MIC: 16 µg/mL (≈ 17.5 µM)
Candida albicans; strain 1063
  MIC: 16 µg/mL (≈ 17.5 µM)
Candida albicans; strain 1117
  MIC: 32 µg/mL (≈ 35 µM)
Candida albicans; strain ATCC 90028
  MIC: 16 µg/mL (≈ 17.5 µM)
Candida albicans; strain C-83
  MIC: ≥ 64 µg/mL
Candida zeylanoided
  MIC: 8 µg/mL (≈ 8.75 µM)
Aspergillus flavus
  MIC: ≥ 64 µg/mL
Aspergillus niger
  MIC: ≥ 64 µg/mL
Candida lusitaniae
  MIC: 4 µg/mL (≈ 4.38 µM)
Candida rugosa
  MIC: 16 µg/mL (≈ 17.5 µM)
Candida pseudotropicalis
  MIC: 4 µg/mL (≈ 4.38 µM)
